Results as given in publication PMC10331789 (Journal of natural products, 2023).

Target: Na+/K+-ATPase (NKA)
Experiment: luminescent ADP detection assay
Type: biochemical, Sus scrofa

For `CO[C@H]1C[C@H](O[C@H]2CC[C@@]3(C)[C@@H](C2)C[C@@H]2O[C@]24[C@@H]3[C@H](O)C(=O)[C@]2(C)[C@@H](C3=CC(=O)OC3)CC[C@]42O)O[C@@H](C)[C@@H]1O` [compound 1, (–)-cryptanoside A], the IC50 was 1200 nM.
